pIC50: −log10 of the molar value. Results filed as inconclusive are left out. Where a SMILES comes first, the peptide text is derived from it. [ ]: non-standard residue; d: D form. The star is where a group is joined. ξ: configuration not given here. ξF = NC(Cc1ccccc1)C(=O)O; Cbz = O=C(OCc1ccccc1)* Some results are limits rather than exact numbers.

The test system of this experiment is M. tuberculosis H37Rv growth inhibition, 7H9 media. Put plainly: M. tuberculosis growth inhibition, HTS (AID 449762).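 As to all read-outs here: bacterial growth assessed after seven days of incubation.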 As to conditions: for IC90: measured here: IC90 growth inhibition.

In the case of `Cc1cc(C)n(-c2nc(Nc3ccccc3C(F)(F)F)nc(-n3nc(C)cc3C)n2)n1`, the pIC50 (commonly −log10 of the IC50, conventionally taken in molar units) is 6.19 and the IC90 – broadly, the point of the concentration-response curve where the effect stands at 90% – was 1.56 µM. For `CN(CCCNC(=O)c1cc2c(Cl)nc3ccccc3c2s1)Cc1ccccc1`, the negative-log IC50 (pIC50) is 4.39 and the IC90 was determined as 61 µM. Regarding `O=C(CSc1nn(-c2ccc(F)cc2)c(=S)s1)NCC1CCCO1` (stereo not drawn), the negative logarithm of the IC50 (pIC50) was 5.21 and the IC90 was above 100 µM. The corresponding values for `CCOc1ccc(Nc2cc(C)nc(-n3nc(C)cc3C)n2)cc1` are 6.15 and 4.77 µM.

As for `N#Cc1cccc(NC(=O)N2CCC(c3nc4c(nnn4Cc4cccc(Cl)c4)c(=O)[nH]3)CC2)c1`, the pIC50 was 4.91 and the 90% effect concentration (IC90) worked out at 13.5 µM. The corresponding values for `CCOC(=O)C1=C(C)NC(SCC(=O)Nc2nc(C)cs2)=C(C#N)C1c1cccs1` (stereo not drawn) are 4.46 and 48.7 µM. As to `NN/C(=C\[N+](=O)[O-])Nc1ccc(Cl)cc1`, the negative logarithm of the IC50 (pIC50) was 4.34 and the 90% effect concentration (IC90) is above 100 µM.

As to `O=C(NN=C1c2ccccc2-c2ccccc21)c1cccc(Br)c1`, the pIC50 is 6.55 and the IC90 was above 100 µM. As for `CCc1cccc2c(=O)c(C(=O)N3CCOCC3)c[nH]c12`, the pIC50 is 5.18 and the IC90 stood at 14.2 µM. Take `COc1ccc(-c2c[n+]3c4n2CCCCC4=C(c2ccccc2)C3)cc1`: the pIC50 is 4.45 and the concentration for an effect of 90% (IC90) turned out to be 43.7 µM.

With `COc1ccc(Cc2nnc(SCC(=O)N(c3ccccc3)C(C)C)n(N)c2=O)cc1`, the negative logarithm of the IC50 (pIC50) was 4.39 and the IC90 is 74.4 µM. For `CCOC(=O)CNC(=O)C(Cc1ccccc1)NC(=O)OCc1ccccc1` (stereo not drawn) (Cbz-[ξF]-Gly-OEt), in that order: 5.65 and 3.36 µM. Regarding `O=C(NCCCN1CCOCC1)c1cc2c([nH]c3ccccc32)c(-c2cccc(Br)c2)n1`, the negative-log IC50 (pIC50) was 4.98 and the IC90 amounted to 13.4 µM. In the case of `CCCCn1cnc2c(c(-c3ccccc3)c(-c3ccccc3)n2Cc2ccco2)c1=N`, the pIC50 is 4.12 and the 90% effect concentration (IC90) amounted to 97.4 µM.

With `CC(C)(C)NC(=O)COC(=O)c1cc(Br)ccc1Cl`, the pIC50 is 4.56 and the 90% effect concentration (IC90) stood at 65.1 µM. On to `O=C(CCl)NCCCCCCCCCNC(=O)CCl`, for which the negative logarithm of the IC50 (pIC50) is above 6.70 and the IC90 was below 0.2 µM. For the compound `O=C(NC1CCCC(C(F)(F)F)C1)c1ccc([N+](=O)[O-])o1` (stereo not drawn), the negative logarithm of the IC50 (pIC50) is 5.57 and the IC90 was 12.3 µM. Consider `CCC(C)N1CCC2(CC1)N=c1c(c3c4c5c(C)c(O)c3c(O)c1=NC(=O)C(C)=CC=C[C@H](C)[C@H](O)[C@@H](C)[C@@H](O)[C@@H](C)[C@H](OC(C)=O)[C@H](C)[C@@H](OC)C=CO[C@@](C)(O5)C4=O)N2` (stereo partly drawn), for which the pIC50 was above 6.70 and the IC90 was below 0.2 µM.

On to `CCO[C@H]1OC(C(=O)NCc2nc3ccccc3[nH]2)=C[C@@H](c2csc3ccccc23)[C@@H]1CCCO`, for which the negative-log IC50 (pIC50) was 4.35 and the concentration for an effect of 90% (IC90) was found to be 50.5 µM. For `COc1ccc(CNC[C@@H](CCCCN(C)Cc2ccc(OC)cc2)N2C[C@H](c3ccccc3)N(CCc3ccc(Cl)c(Cl)c3)C(=O)C2=O)cc1`, in that order: 5.26 and 8.71 µM. The compound `COc1ccccc1/C=C/C1=NC(=C\C=C/c2ccccc2)/C(=O)O1` displayed an IC90 above 100 µM. For the compound `CCC(=O)c1ccc(OCC(O)CN2CCN(c3cccc(C(F)(F)F)c3)CC2)cc1` (stereo not drawn), the pIC50 is 4.70 and the IC90 was 28 µM. Consider `CCCCN(C)S(=O)(=O)c1ccc(C(=O)Nc2nnc(-c3ccco3)o2)cc1`, for which the pIC50 is 5.10 and the IC90 came out at 21.2 µM. `CC1(c2nnc(-c3ccncc3)o2)CC(c2ccccc2)=NO1` (stereo not drawn): the pIC50 was 4.20 and the IC90 is above 100 µM. The corresponding values for `Cc1sc2ncnc(N3CCC(C(=O)N(CC(C)C)c4nc5ccccc5s4)CC3)c2c1C` are 4.07 and above 100 µM. `N#Cc1ccc(CN2CCN(CC(=O)NCCc3ccc(Cl)cc3Cl)CC2)cc1`: the negative-log IC50 (pIC50) was 4.37 and the IC90 is 54 µM. For `Cc1ccc(N(CCC#N)C(=O)CCl)cc1C`, the negative-log IC50 (pIC50) was 6.01 and the IC90 is 4.41 µM. For `Cc1nn(Cc2ccccc2)c(C)c1C(=O)OCC(=O)c1cc(C)n(CC(F)(F)F)c1C`, the pIC50 was 4.93 and the IC90 came out at 35.4 µM. For `CCN(CC)S(=O)(=O)c1ccc2[nH]cc(C(=O)NCCC3=CCCCC3)c(=O)c2c1`, the pIC50 was 4.39 and the concentration for an effect of 90% (IC90) is above 100 µM.

Turning to `CCCCn1c(=O)c(C(=O)Nc2ncccc2C)c(O)c2ccccc21`, the pIC50 was 4.99 and the IC90 is 15.8 µM. On to `Cc1cccc(NS(=O)(=O)c2ccc(C(=O)N3CCN(c4ccccc4O)CC3)cc2)c1C`, for which the negative-log IC50 (pIC50) was 4.12 and the 90% effect concentration (IC90) was above 100 µM.

As to `Cn1c(NCC(O)c2ccccc2)nc2c1c(=O)n(Cc1ccc(Cl)c(Cl)c1)c(=O)n2C` (stereo not drawn), the pIC50 was 5.12 and the IC90 is 18.1 µM.

`Cc1cccc(/C=C/c2onc(C)c2[N+](=O)[O-])n1`: the negative logarithm of the IC50 (pIC50) was 4.96 and the IC90 came to 19.1 µM. As to `Cc1ccc2nc(-c3ccncc3)cc(-c3ccccc3)c2c1`, the pIC50 is 4.44 and the IC90 was 47.2 µM. Consider `C=CCc1cc(C)ccc1OCCCC(C(=O)OCC)C(=O)OCC`, for which the pIC50 is 5.01 and the IC90 is 21.4 µM.

For the compound `CNc1ccc2nc3ccccc3[n+](C)c2c1`, the pIC50 was 5.89 and the 90% effect concentration (IC90) amounted to 2.34 µM.

Consider `CC(=O)c1cccc(NC(=S)NC2CCCCCCC2)c1`, for which the negative logarithm of the IC50 (pIC50) is 4.63 and the concentration for an effect of 90% (IC90) is 26.2 µM. On to `O=C(CNC(=O)c1ccco1)OCc1ccc(C(=O)Oc2ccccc2)cc1`, for which the pIC50 was 5.34 and the IC90 was determined as 16.2 µM. Turning to `CC1CCCC/C1=N\NC(=S)NCCc1ccccc1` (stereo not drawn), the pIC50 is 4.66 and the 90% effect concentration (IC90) turned out to be 24.6 µM. Take `CC1(O)CC(c2ccc(Cl)cc2)=NN1C(=O)c1ccc([N+](=O)[O-])cc1` (stereo not drawn): the negative-log IC50 (pIC50) was 4.76 and the 90% effect concentration (IC90) was above 100 µM. Take `COc1ccc(-c2csc3ncnc(N4CCN(c5ccccc5OC)CC4)c23)cc1`: the pIC50 was 4.64 and the IC90 was found to be 26.2 µM.

Take `Cc1cc(C)c2cc(C(=O)Nc3ccc(C)c(F)c3)[nH]c2c1`: the negative-log IC50 (pIC50) is 6.03 and the 90% effect concentration (IC90) is 1.69 µM.

In the case of `CCCCn1c(SCc2ncc(-c3ccccc3)o2)nc2cc(S(N)(=O)=O)ccc21`, the pIC50 is 5.48 and the IC90 came to 5.84 µM.

Turning to `O=C(CCN1C(=O)/C(=C/c2ccccc2Cl)SC1=S)N1CCCC1`, the pIC50 was 5.01 and the 90% effect concentration (IC90) is above 25 µM. As to `COc1ccc(OCC(=O)Nc2c(C(=O)N(CCN(C)C)Cc3ccco3)oc3ccccc23)cc1`, the negative-log IC50 (pIC50) was 4.60 and the concentration for an effect of 90% (IC90) is 27.5 µM. With `CCOC(=O)C1=C(C)Nc2nc(SCC(=O)OC)nn2C1c1cc(F)cc(F)c1` (stereo not drawn), the negative logarithm of the IC50 (pIC50) is 5.30 and the IC90 amounted to 7.95 µM. In the case of `CN1CCc2cc3c(c4c2C1Cc1ccccc1-4)OCO3` (stereo not drawn), the pIC50 was 5.78 and the IC90 is 1.94 µM.

As for `CN(c1ccccc1)c1ccc(/C=C/[N+](=O)[O-])cc1`, the pIC50 was 5.05 and the IC90 was found to be 16.9 µM. As to `C/C(=N\NC(N)=S)c1ccc(Cl)s1`, the negative logarithm of the IC50 (pIC50) is 4.92 and the 90% effect concentration (IC90) was 17.7 µM. Regarding `CCCn1nnc(NC(=O)COc2ccc(CC)cc2)n1`, the pIC50 is 4.53 and the IC90 was above 100 µM.

On to `C#CCOc1ccc2c(c1)c(C(C)=O)c(C)n2Cc1ccccc1`, for which the pIC50 was 4.16 and the 90% effect concentration (IC90) is above 100 µM. Take `Cc1cccc(OCC(=O)NNC(=O)c2cc3ccccc3oc2=O)c1`: the pIC50 was 4.60 and the 90% effect concentration (IC90) is above 100 µM. Take `CCOc1ccc(N2C=Nc3ccc(OCC)cc3C2)cc1`: the negative logarithm of the IC50 (pIC50) was 4.36 and the IC90 worked out at 89.4 µM. For `CCCC[C@@H](CN[C@H](C)CNC)NCC1CCC(C(C)(C)C)CC1` (stereo partly drawn), in that order: 4.74 and 22.7 µM. Take `NC(=S)N/N=C/c1ccccc1OCCSc1ccc(Cl)cc1`: the pIC50 is 4.34 and the IC90 is above 100 µM. Turning to `c1ccc(-c2nc3nonc3nc2-c2ccccc2)cc1`, the pIC50 was 4.47 and the 90% effect concentration (IC90) was 43.9 µM. With `Cn1nnnc1Sc1ncnc2scc(-c3cc4ccccc4o3)c12`, the pIC50 is 6.11 and the concentration for an effect of 90% (IC90) was 7 µM. Consider `CCc1ccc2[nH]c(=O)c(CN(CCCN3CCOCC3)C(=O)Nc3cccc(Cl)c3)cc2c1`, for which the pIC50 is 4.62 and the 90% effect concentration (IC90) is 30.4 µM. Turning to `COC(=O)CSc1nnc(CNc2ccc(Cl)cc2)n1-c1ccccc1`, the pIC50 is 4.90 and the concentration for an effect of 90% (IC90) amounted to 37.4 µM. For `COc1ccc(C2=NN(C(=O)COC(=O)c3ccc(S(C)(=O)=O)c([N+](=O)[O-])c3)C(c3ccco3)C2)cc1` (stereo not drawn), the pIC50 is 5.18 and the 90% effect concentration (IC90) worked out at 14.9 µM. As to `COC(=O)C(C)Oc1ccc(-c2nccc(-c3ccccn3)n2)cc1` (stereo not drawn), the negative-log IC50 (pIC50) was 5.76 and the IC90 is 4.04 µM. Regarding `O=[N+]([O-])c1cn(-c2nc(-c3ccco3)cc(C(F)(F)F)n2)cn1`, the negative logarithm of the IC50 (pIC50) is 5.75 and the concentration for an effect of 90% (IC90) was found to be 22 µM. Regarding `COC(=O)c1ccc2c(=O)[nH]c(CSc3nc(C)cs3)nc2c1`, the pIC50 is 4.16 and the IC90 was above 100 µM.

As for `Cc1ccc(Nc2nc(N)c([N+](=O)[O-])c(N3CCCC(C)C3)n2)cc1C` (stereo not drawn), the pIC50 was 4.00 and the IC90 was above 100 µM.

On to `COc1ccc(N2C(=O)C(Cl)=C(Nc3ccccc3O)C2=O)cc1`, for which the negative logarithm of the IC50 (pIC50) is 4.85 and the IC90 was determined as 25.7 µM. `Nc1ccc2c(c1)Cc1ccccc1-2` yielded a 90% effect concentration (IC90) above 100 µM. For `COc1ccc(CCNc2nc(N3CCCCC3)nc(N3CCCCC3)n2)cc1OC`, the pIC50 was 4.76 and the 90% effect concentration (IC90) was 22.5 µM. Consider `Cn1ccnc1C(=O)C1CCCN(Cc2cn[nH]c2-c2ccc(-c3ccccc3)cc2)C1` (stereo not drawn), for which the negative-log IC50 (pIC50) was 4.12 and the 90% effect concentration (IC90) was found to be 91.7 µM. In the case of `O=[N+]([O-])c1ccc(-n2cnc3ccccc32)c([N+](=O)[O-])c1`, the negative-log IC50 (pIC50) is 5.79 and the IC90 stood at 5.96 µM. As for `Cc1cc(C)n(-c2cc(C(C)(C)C)nc3c(-c4ccccc4)cnn23)n1`, the pIC50 is 4.56 and the concentration for an effect of 90% (IC90) was determined as 34.7 µM.

These data come from PubChem BioAssay AID449762 (Southern Research Specialized Biocontainment Screening …, 2010).
